Assay type in all cases: in vivo
The subject of experiment [1] is Drosophila suzukii (SWD). Description: SWD laboratory two-choice oviposition bioassay on raspberries. The arrangement: key to Behavioral activity (SWD oviposition group): Negative: “SWD negative” compounds (i.e., SWD oviposition was reduced); Neutral: “SWD neutral” compounds (i.e., no effect on oviposition). The conditions noted are these: for Behavioral activity (SWD oviposition group): individual CFA component; for Behavioral activity (SWD oviposition group) / effect on SWD oviposition vs control / eggs oviposited among all treated raspberries: two-choice; for reduced SWD oviposition / SWD oviposition deterrence / effect on SWD oviposition vs control / eggs oviposited among all treated raspberries: individual compound; for reduced SWD oviposition: 0.2 mg dose; for SWD oviposition deterrence: 2 mg dose; for effect on SWD oviposition vs control / eggs oviposited among all treated raspberries: 20 mg dose. The procedure: Laboratory choice test 1 Oviposition bioassays were conducted at USDA-ARS in Hilo, Hawaii using a laboratory two-choice cage experimental set-up with organic raspberries purchased from a local grocery as an oviposition substrate. For all laboratory assays listed below, the receptacles of the raspberries were stuffed with cotton to prevent flies from ovipositing on the interior of the fruit as described previously in Cha D H et al. (2021, supra). The two-choice oviposition bioassay was conducted over 24 hours in screened cages (30 cm W×30 cm L×30 cm H; BugDorm-2120 Insect tent; shop.bugdorm.com) with 30 female and 10 male SWD (7-8 days old) released per cage. Each cage was provided with cotton moistened with water in a 20 mL deli cup and two 30 mL deli cups; one with two raspberries treated with CFA diluted in hexane and the other with two raspberries treated with hexane only. Each raspberry was surface-treated either with 200 μL of hexane or 200 μL of CFA in one of three doses (20, 2, or 0.2 mg CFA/200 μL hexane), placed into a fume hood for 10 minutes or until used in the bioassay. The deli cups with the treated berries were positioned in the center of the floor of the screened cage, 17 cm apart from each other. Female flies were allowed to oviposit on the surface of raspberries for 24 hours. At the conclusion of the bioassay, each 30 mL deli cup containing two raspberries was moved into a 600 mL deli cup with a mesh cap, held for 8 days (22.1±1.9° C., 71.7±3.1% RH, 16:8 L:D), when the number of larvae and pupae were counted. The experiment was replicated four times per treatment. Laboratory choice test 2 A series of bioassays were conducted in Hilo, Hawaii to identify key bioactive deterrent components of CFA for SWD using the same two-choice bioassay described above. […] Due to solubility differences, ethanol was used as control and for dilution of C16:0 and C18:0, while hexane was used as control and for dilution of the other six compounds tested. Based on the outcome of these bioassays, the eight free fatty acid components of CFA were grouped into two groups; “SWD negative” compounds (i.e., SWD oviposition was reduced) and “SWD neutral” compounds (i.e., no effect on oviposition), and tested whether the blend of “SWD negative” compounds had the same oviposition deterrence as the CFA at their equivalent concentrations as in CFA (see Table 2). The oviposition deterrence of the blend of “SWD negative” compounds was first compared to hexane at three different doses (20, 2 and 0.2 mg CFA equivalent/raspberry) and subsequently compared to CFA at 2 mg equivalent dose.

Experiment [2] has as its system Drosophila suzukii (SWD). Description: SWD laboratory no-choice oviposition test on raspberries. The conditions noted are these: 20 mg CFA or 20 mg CFA equivalent dose, 24 hours. The procedure:
Laboratory no-choice test The oviposition deterrence of the key-component blend determined from the “Laboratory choice test 2” described above (2c blend composed of C8:0 and C10:0; Table 2) was tested using a no-choice bioassay in Geneva, New York, USA using organic raspberries purchased from a local grocery and using 30 cm×30 cm×30 cm screened cages as described above. Each cage held four raspberries on a 10 cm diameter glass petri dish lined with filter paper and assigned to one of five treatments: 1) 20 mg of CFA/200 μL hexane/raspberry, 2) C8:0 at 20 mg CFA equivalent dose/200 μL hexane/raspberry, 3) C10:0 at 20 mg CFA equivalent dose/200 μL hexane/raspberry, 4) 2c blend at 20 mg CFA equivalent dose/200 μL hexane/raspberry, or 5) 200 μL of hexane control/raspberry (see Table 2 for equivalent doses). Twenty SWD females (5 days old) were released into each cage and allowed to oviposit on raspberries over 24 hours in an environmental chamber (25° C., 55% RH, 16:8 L:D). At the end of each trial, the raspberries were inspected under a dissecting microscope and the eggs were counted. The experiment was replicated eight times per treatment.

The test system of experiment [3] is Zeugodacus cucurbitae. The experiment in a line: Z. cucurbitae two-choice oviposition bioassay on pumpkin juice-infused agar. The conditions noted are these: for Behavioral activity (Z. cucurbitae oviposition group): individual CFFA component; for Z. cucurbitae oviposition reduction vs control agar: individual compound, 20 mg dose. Also noted: key to Behavioral activity (Z. cucurbitae oviposition group): Negative: “negative” (i.e., oviposition reduced); Neutral: “neutral” (i.e., no effect on oviposition); Positive: “positive” (i.e., oviposition increased). The procedure:
Oviposition bioassays were conducted with mated female flies, using pumpkin juice-infused agar as an oviposition substrate. A small petri dish (60×15 mm) filled with 10 mL of 1% agar mixed in pumpkin juice was used as an oviposition substrate. The agar plates were surface-treated either with 200 μL of ethanol or 200 μL of CFFA in one of 4 doses tested (20, 2, 0.2, and 0.02 mg/200 μL of ethanol), placed into a fume hood for 10 minutes for solvent evaporation prior to use in bioassays, and positioned upside-down (i.e. treated side down) on top of the 30×30×30 cm (W×L×H) screened cage 17 cm apart from each other (i.e. one each of control and CFFA treated), allowing 20 female flies (14 to 18 day-old) to oviposit on pumpkin juice agar from the bottom through the cage screen for 24 hours. Each cage was provided with a ball of water-saturated cotton, sugar, and protein hydrolysate in separate 30 mL deli cups and two oviposition substrates-one treated with CFFA diluted in ethanol and the other treated with the ethanol control. After 24 hours, Z. cucurbitae eggs in the pumpkin agar were gently separated from the agar in water and the number of eggs were individually counted. The experiment was replicated five times per treatment. CFFA was not an effective oviposition deterrent for Z. cucurbitae which is contrary to our previous work on B. dorsalis (Roh et al., 2023a). […] CFFA components were categorized into three groups “negative” (i.e., oviposition reduced), “neutral” (i.e., no effect on oviposition), and “positive” (i.e., oviposition increased) based on bioassay outcome. Using these categories, further formulations were made to determine key bioactive CFFA components in terms of oviposition deterrence on Z. cucurbitae at the equivalent ratios and concentrations of each component found in CFFA (Zhu et al. 2018). The approach involved testing the bioactivity of the negative-component blend (4c blend) for oviposition deterrence at three different doses (2, 0.2, and 0.02 mg CFFA equivalent/agar), compared with ethanol control. Further, neutral compound is added to the negative blend i.e., ‘negative+neutral’ component blend (5c blend) to identify key compounds for oviposition deterrence. The experiment was replicated five times per treatment.

On to `CCCCCCCC(=O)O` [C8:0, caprylic acid], for which, in experiment [1], the “Behavioral activity (SWD oviposition group)” value is recorded as “Negative”, the “reduced SWD oviposition” value is on record as “not detected”, the “SWD oviposition deterrence” value was “maintained oviposition deterrence” and the “effect on SWD oviposition vs control” value was “almost completely inhibited oviposition”. For the same compound, the “eggs oviposited among all treated raspberries” value in experiment [1] was “zero”. Further, the “effect on SWD oviposition vs solvent control” value in experiment [2] was “significantly reduced SWD oviposition”. Besides, the “effect on Z. cucurbitae oviposition” value in experiment [3] (0.02 mg dose) is reported as “not”. For the same compound, the “effect on Z. cucurbitae oviposition” value in experiment [3] (0.2 mg dose) is “maintained oviposition deterrence”. Besides, the “effect on Z. cucurbitae oviposition” value in experiment [3] (2 mg dose) was “maintained oviposition deterrence”. For the same compound, in experiment [3], the “Behavioral activity (Z. cucurbitae oviposition group)” value is recorded as “Negative” and the “Z. cucurbitae oviposition reduction vs control agar” value was determined as 100%.
Take `CCCCCCCCCC(=O)O` [C10:0, capric acid]: in experiment [1], the “Behavioral activity (SWD oviposition group)” value is recorded as “Negative”, the “reduced SWD oviposition” value is given as “not detected”, the “SWD oviposition deterrence” value is given as “maintained oviposition deterrence” and the “effect on SWD oviposition vs control” value is listed as “almost completely inhibited oviposition”. For the same compound, the “eggs oviposited among all treated raspberries” value in experiment [1] is recorded as “one”. In addition, the “effect on SWD oviposition vs solvent control” value in experiment [2] is reported as “significantly reduced SWD oviposition”. The “effect on Z. cucurbitae oviposition” value in experiment [3] (2 mg dose) is recorded as “either lost oviposition deterrence or increased oviposition”. Besides, in experiment [3], the “Behavioral activity (Z. cucurbitae oviposition group)” value is given as “Negative” and the “Z. cucurbitae oviposition reduction vs control agar” value was 74%.
